Source: patent US5532380A, “R,R,S,S-2-nitroimidazole derivatives” (Pola Chemical Industries, Inc., priority 1992, dated 1996)
Values after ≈ are worked out from the molar mass of the structure shown. Where two headings read alike, the source gives them in different places.

Key:
[1] = Octanol-phosphate partition coefficient; type: physicochemical; details: for logD at 24 h: octanol/0.2 m phosphate buffer; for partition coefficient: average of 1.4 times and 0.7 times; for partition coefficient / partition coefficient at 0.7 times the solubility in octanol / partition coefficient at 1.4 times the solubility in octanol: 1440 min; for partition coefficient at 0.7 times the solubility in octanol / partition coefficient at 1.4 times the solubility in octanol: octanol/0.2 mol phosphate buffer pH 7.4, 20° C.; for partitioning toward the octanol layer: octanol-phosphate, pH 7.4
Protocol: The partition coefficient in the octanol-phosphate buffer solution system, which is indicative of the degree of orientation toward nerve tissues, was determined. […] To the weighed samples 10 ml of 0.2 mol phosphate buffer (pH 7.4), defined in the Pharmacopoeia of Japan, and 10 ml of octanol were added. The mixtures were shaken for 24 hours at 20° C. under light shielding. Octanol and phosphate layers were partitioned to determine the absorbance of each layer. […] The partition coefficients obtained were averaged to determine the partition coefficient of each sample.

[2] = system: breast carcinoma cell EMT6/KU; assay: In vitro hypoxic cell sensitization effect (colony formation, gamma-ray); type: cell-based, Balb/c mouse; details: 1 mM test compound, EMT6/KU hypoxic cells, ratio of radiation amounts without/with compound
Protocol: The degree of the hypoxic cell radiosensitization effects of optical isomers of the present invention as compared with the racemate was studied by the in vitro assay.
Specifically, the radiosensitization effects were investigated using breast carcinoma cell EMT6/KU derived from Balb/c mouse. A hypoxic cell suspension was prepared from MEM suspension-containing EMT6/KU cells at a concentration 4×10^5 cells/ml by adding the test compound to a final concentration of 1 mM, and gently shaking it under a nitrogen gas stream containing 5% CO2 for one hour at room temperature. Gamma-ray was irradiated to the suspension and a radiation-survival rate curve was developed by the colony formation method. The sensitization rate was determined from this radiation-survival rate curve by dividing (i) the amount of radiation which decreases the survival rate of the hypoxic cells by 1% when no test compound was added by (ii) the amount of radiation which decreases the survival rate of the hypoxic cells by 1% when the test compound was added.

[3] = Dissolution test (solubility); type: physicochemical; details: for solubilities compared with SR-RS racemate: water and physiological saline
Protocol: Solubilities of SS, RR, SR, and RS isomers and SR-RS racemate in water and physiological saline were determined.

[4] = system: EMT6/KU-cancerated Balb/c mouse; assay: In vivo-in vitro hypoxic cell sensitization effect (EMT6/KU tumour-bearing mouse, gamma-ray, colony forming method); details: 200 mg/kg; 20 Gy gamma-ray 30 minutes thereafter
Protocol: The degree of the hypoxic cell radiosensitization effects of optical isomers of the present invention in in vivo-in vitro system was investigated in the same manner using the racemate as a control. Specifically, the radiosensitization effects were investigated using EMT6/KU-cancerated Balb/c mouse. 200 mg/kg of each test compound was administered and 20 Gy gamma-ray was irradiated 30 minutes thereafter. Carcinoma was extracted and treated with trypsin to prepare a cell suspension. The survival rate was determined by the colony forming method. A physiological saline solution was administered to the control.

hypoxic cell = details: cited from earlier work
[5] = Acute toxicity test (LD50/14), i.v. or i.p.; details: mouse, in vivo
Source text: Test compounds, dissolved in physiological saline or a physiological saline solution containing 10% DMSO, were intravenously or intraperitoneally injected to ICR male mice, aged 5 weeks.

male ICR mice = details: mouse, in vivo, iv
Protocol: The acute toxicity was determined using groups of male ICR mice, aged 5 weeks, each group consisting of five mice. Test compounds were dissolved in physiological saline and administered by injection through caudal vein. The death-survival determination was made 14 days after the administration.

[6] = pH 7.4, average of 1.4 times and 0.7 times, pH 7.4, 20° C., read-out: partition coefficient (converted)
[7] = pH 7.4, octanol/0.2 mol phosphate buffer pH 7.4, 20° C., 24 hours, 0.7 times, read-out: partition coefficient at 0.7 times the solubility in octanol (converted)
[8] = pH 7.4, octanol/0.2 mol phosphate buffer pH 7.4, 20° C., 24 hours, 1.4 times, read-out: partition coefficient at 1.4 times the solubility in octanol (converted)
[9] = physiological saline, read-out: Solubility in physiological saline
[10] = water, read-out: Solubility in water
[11] = intravenously or intraperitoneally, ICR male mice, 14 days

Structure (SMILES) | logD at 24 h [1, 6] | logD at 24 h [1, 7] | logD at 24 h [1, 8] | Hypoxic cell sensitization rate [2] | Hypoxic cell survival rate [4] [%] | solubility [3, 9] [mg/mL] | solubility [3, 10] [mg/mL] | solubilities compared with SR-RS racemate [3] | also measured
COCC(O)Cn1ccnc1[N+](=O)[O-] (stereo not drawn) [Misonidazole, reference compound] | -0.409 | -0.397 | -0.423 |  |  |  |  |  | 
O=[N+]([O-])c1nccn1COC(CO)C(O)CO (single isomer, unassigned) [RS or SR isomer (rotation(-))] |  |  |  | 1.7 | 0.08 |  |  |  | partition coefficient ([1]; pH 7.4, 20° C.): 0.053; partition coefficient at 0.7 times the solubility in octanol ([1]; 24 hours, 0.7 times): 0.058; partition coefficient at 1.4 times the solubility in octanol ([1]; 24 hours, 1.4 times): 0.048; Solubility in physiological saline ([3]; physiological saline): 0.06 g/ml
O=[N+]([O-])c1nccn1CO[C@H](CO)[C@@H](O)CO (relative stereo) [SR-RS racemate, (1'RS,2'SR)-1-[(2',3'-dihydroxy-1' -hydroxymethyl)propoxy]methyl-2-nitroimidazole] | -1.33 | -1.24 | -1.43 | 1.7 | 0.08 | 40 (≈ 162 mM) | 40 (≈ 162 mM) |  | hypoxic cell radiosensitization effect compared with misonidazole (hypoxic cell): about the same degree of hypoxic cell radiosensitization effect as misonidazole
O=[N+]([O-])c1nccn1CO[C@@H](CO)[C@H](O)CO [Compound (4)] |  |  |  |  |  |  |  |  | LD50 at 336 h [5, 11]: 5900 mg/kg
O=[N+]([O-])c1nccn1CO[C@H](CO)[C@@H](O)CO [RS isomer] |  |  |  |  |  |  |  | remarkably larger than that of SR-RS racemate | 
O=[N+]([O-])c1nccn1CO[C@@H](CO)[C@@H](O)CO [SS isomer, (1'S,2'S)-1-[(2', 3'-dihydroxy-1'-hydroxymethyl)propoxy]methyl-2-nitroimidazole] | -1.55 | -1.51 | -1.59 | 1.8 | 0.07 | 820 (≈ 3320 mM) | 850 (≈ 3440 mM) | remarkably larger than that of SR-RS racemate | partitioning toward the octanol layer [1]: less partitioned toward the octanol layer; LD50 at 336 h [5]: 6000 mg/kg; safety compared with other optically active isomers (male ICR mice): better safety than other optically active isomers
O=[N+]([O-])c1nccn1CO[C@H](CO)[C@H](O)CO [RR isomer, (1'R,2'R)-1-[(2', 3'-dihydroxy-1'-hydroxymethyl)propoxy]methyl-2-nitroimidazole] | -1.6 | -1.59 | -1.62 | 1.8 | 0.07 | 870 (≈ 3520 mM) | 740 (≈ 2990 mM) | remarkably larger than that of SR-RS racemate | partitioning toward the octanol layer [1]: less partitioned toward the octanol layer; LD50 at 336 h [5]: 6000 mg/kg
O=[N+]([O-])c1nccn1COC(CO)C(O)CO (single isomer, unassigned) [RS or SR isomer (rotation(+))] |  |  |  | 1.7 | 0.08 | 70 (≈ 283 mM) |  |  | partition coefficient ([1]; pH 7.4, 20° C.): 0.056; partition coefficient at 0.7 times the solubility in octanol ([1]; 24 hours, 0.7 times): 0.059; partition coefficient at 1.4 times the solubility in octanol ([1]; 24 hours, 1.4 times): 0.053
O=[N+]([O-])c1nccn1CO[C@H](CO)[C@@H](O)CO [Compound (3)] |  |  |  |  |  |  |  |  | LD50 at 336 h [5, 11]: 5900 mg/kg
O=[N+]([O-])c1nccn1CO[C@@H](CO)[C@H](O)CO [SR isomer] |  |  |  |  |  |  |  | remarkably larger than that of SR-RS racemate | 
